Series [1] can be described thus: Dynamic viscoelasticity measurement of corn starch gel. It counts as physicochemical. Particulars: corn starch gel with 10% aqueous solution, 4° C., after 96 hours. The method, then:
In 20-mL glass vials, corn starch (manufactured by FUJIFILM Wako Pure Chemical Corporation) was mixed with each of the 10% aqueous solution of 4-trehalosamine (4TA), 10% aqueous solution of trehalose (TRH), 10% aqueous solution of sucrose (SCR), and 10% aqueous solution of glycerol (GOL), which are the test samples, or water as control to a final concentration of 15% (w/w) and uniformly suspended, and the suspensions were autoclaved at 121° C. for 20 minutes to gel them. For each of them, 0-hour sample and 96-hour sample were prepared.
After cooling them to room temperature, dynamic viscoelasticity measurement was performed on the 0-hour sample within 4 hours. The 96-hour sample was left to stand at 4° C. for 96 hours and then subjected to dynamic viscoelasticity measurement.
The dynamic viscoelasticity measurement was performed using a MCR300 rheometer (manufactured by Physica, Stuttgart, Germany) under the condition of the gap of a 25-mm parallel plate measurement tool being 1.0 mm. Under the conditions of a fixed frequency of 1.0 Hz, a strain amplitude of 1%, and 25° C., a storage modulus (G′) and a loss modulus (G″) were measured and a loss tangent (tan δ=G″/G′) was calculated. In FIG. 15K, the value of tan δ is indicated on the vertical axis (n=5, mean±S.D.).

The nature of series [2]: Dynamics upon oral administration to mice (blood level, urinary and fecal excretion). Particulars: single oral dose 0.5 mg per g of body weight. It counts as in vivo, ICR mice. The method, then: 4-trehalosamine or trehalose dissolved in saline at 0.5 mg/10 μL per g of body weight was orally administered in a single dose to ICR mice (9-week to 10-week old, female, n=5) that had been fasted overnight. The five mice on which the same treatment had been performed were placed in the same cage.
Urine and feces were regularly collected together. The collected feces were suspended in water at 200 mg/mL and centrifuged at 21,300×g for 5 minutes. The centrifuged supernatant of feces suspension and the collected urine were each diluted with methanol to 1/1,000, on which LC-MS analysis was performed under similar conditions to test example 1 and cumulative excretion of 4-trehalosamine (4TA) or trehalose (TRH) over time was calculated.
Blood was regularly collected from tail vein in an amount of around 10 μL to 20 μL, and 200 μL of methanol was added to it after measurement. After agitation on a vortex, it was centrifuged at 21,000×g for 5 minutes. The supernatant was diluted with methanol to ⅕ and LC-MS analysis was performed on it under similar conditions to test example 1. The results for 4-trehalosamine are shown in FIG. 19G and the results for trehalose are shown in FIG. 19H for each individual (n=5).

On to `N[C@H]1[C@H](O)[C@@H](O)[C@@H](O[C@H]2O[C@H](CO)[C@@H](O)[C@H](O)[C@H]2O)O[C@@H]1CO` [4-trehalosamine], for which, in series [1], the “change in loss tangent (tan δ) value” is listed as “little change or a slight increase in the loss tangent value”. Moreover, the “absorption and blood circulation after oral administration” value in series [2] (fasted) is “a portion of orally administered 4-trehalosamine is absorbed and circulates in blood for a certain amount of time”. Besides, in series [2] (urine and feces), the excretion result was “excreted through feces and urine in the original form, without being degraded or modified”.

Source of the values: patent US20250002954A1, “Novel Compound, Use Thereof, and Method for Producing Same, and Compound-Containing Composition, Method for Producing 4-Trehalosamine, and Microorganism” (Microbial Chemistry Research Foundation, priority 2021, published 2025).
